Results reported in patent US20100310543A1, “METHOD OF PREVENTING AND TREATING ACUTE BRAIN PATHOLOGIES” (UNIVERSITY OF ZURICH, priority 2007, published 2010).
“And” between values parts separate entries of the source, which are not always exact repeats. Identical values can stand only once. Like-named read-outs stand apart in the source and are kept apart here.

Assays:
[1] = tested on: hippocampal slices; settings: 1 μM OA; cited from earlier work
[2] = tested on: acute hippocampal slices (area CA1); assay: f-EPSP recovery after transient OGD in acute hippocampal slices; type: cell-based, mouse; settings: for mean f-EPSP slope 80-90 min after the onset of OGD: 25 min OGD, % of pre-OGD baseline
Protocol: (§1) Adult mice were killed by cervical dislocation and the heads were immediately immersed in freshly prepared ice-cold artificial cerebrospinal fluid (aCSF: 119 mM NaCl, 11 mM D-glucose, 1.3 mM MgCl2.6H2O, 1.3 mM NaH2PO4, 2.5 mM KCl, 2.5 mM CaCl2, 26 mM NaHCO3, gassed with 95% O2/5% CO2 for a minimum of 20-min) for at least 3 min. Brains were quickly removed and hippocampi were extracted for electrophysiological recordings. Acute slices (400 μm thick) were prepared with a vibratome (Leica VT 1000S, Germany) in ice-cold oxygenated aCSF. Slices were transferred to an interface chamber at 34° C. for 40 to 50 min then kept at room temperature for at least 1-2 hours before recording. Recordings were performed in a submersion chamber (Slice Mini Chamber III/IV, Luigs & Neumann, Germany) continuously perfused with aCSF at approximately 1.1 ml/min. A monopolar electrode was placed in the stratum radiatum to activate Schaffer collaterals and test stimuli were applied at 0.033 Hz at an intensity set to evoke 1/3 of the maximum f-EPSP. Evoked f-EPSP were recorded in the stratum radiatum with a borosilicate micropipette filled with NaCl 3M or aCSF. The signal was amplified with an AXOPATCH 200B amplifier (Axon Instruments/Molecular Devices, Germany) and sampled using pCLAMP. Baseline responses were recorded for 10-min or until stable. For extracellular recordings in example 8, a monopolar electrode is placed in the Schaffer collateral fibers, and stimulation is applied at 0.033 Hz with stimulus intensity ranging from 20 to 80 μA, yielding evoked field EPSPs (fEPSPs) of […]. fEPSPs are recorded in the stratum radiatum using a borosilicate micropipette filled with aCSF.
For each electrophysiological experiment, the average slope of individual f-EPSP was measured from the initial 1-1.5 ms-portion following the fiber volley using Clampfit (Axon Instruments, Germany). For statistical analyses, the f-EPSP slope was averaged over 1-min and analyzed by three-way analysis of variance (ANOVA) using Statview 5.0 with sequences (10-min) and stimulation (1-min bins) as repeated measures. […] Infarct volume and DNA fragmentation were analyzed by two-tailed t-tests. Western blots were evaluated by one-way ANOVA followed by LSD post-hoc tests. Statistical significance was set at p=0.05, data are presented as mean±SEM.
Graded doses of OA were used to inhibit both PP1 and PP2A, or PP2A alone.

[3] = tested on: PP2A; settings: literature ranges, cited from earlier work
[4] = tested on: PP1; settings: literature ranges, cited from earlier work
[5] = tested on: JNK2; assay: Western blot of phosphorylated JNK2 in slices subjected to OGD; settings: PP1 inhibition (tautomycin) in vitro
Protocol: (§2) Acute slices (hippocampus, cortex and striatum) were exposed to 15 to 25-min of hypoxic/aglycemic conditions by perfusion with aCSF containing no glucose (replaced with equimolar sucrose) and gassed with N2/CO2 (95/5%) (Lobner and Lipton, 1993; Raley-Susman and Lipton, 1990). […] The OGD solution reached the recording chamber within 30 seconds and replaced the normoxic aCSF within 2-3 min.
(§3) Drugs for slice recordings were bath-applied for 2 hours before recording in oxygenated aCSF. Okadaic acid (Alexis Corporation, Switzerland) and tautomycin (Alexis Corporation and Sigma Aldrich, Switzerland) were dissolved in DMSO (30 mM) and methanol or ethanol (1 mM), respectively, and stock solutions were diluted further in aCSF the day of the experiment. The respective solvents were used for drug-control experiments. For both mutant and control slices, the aCSF was supplemented with doxycycline hydrochloride (Sigma, Buchs, Switzerland) at 8 ng/ml.
(§4) Tissue samples from the striatum ipsilateral and contralateral to MCAO or from acute forebrain slices (hippocampus, cortex and striatum) were homogenized in lysis buffer and centrifuged. Supernatants were resolved on SDS-PAGE and proteins were transferred onto PVDF membranes. […] The band intensity was determined by densitometry and corrected for protein loading using anti-β-actin antibody (A5316; Sigma) as an internal control.

[6] = tested on: PP1; settings: 1 nM tautomycin (submaximal dose); cited from earlier work
[7] = tested on: JNK1; assay: Western blot of phosphorylated JNK1 in slices subjected to OGD; settings: PP1 inhibition (tautomycin) or OGD in vitro
Protocol: as §2, §3, §4

[8] = tested on: ERK1; assay: Western blot of phosphorylated ERK1 in slices subjected to OGD; settings: control slices treated with tautomycin (3 nM) and subjected to OGD
Protocol: as §2, §3, §4

[9] = tested on: ERK2; assay: Western blot of phosphorylated ERK2 in slices subjected to OGD; settings: control slices treated with tautomycin (3 nM) and subjected to OGD
Protocol: as §2, §3, §4

[10] = tested on: hippocampal slices (Schaffer collaterals/CA1); assay: LTD (f-EPSP slope) in hippocampal slices; type: cell-based, mouse; settings: 1 nM tautomycin, LTD without OGD
Protocol: as §1, with “1.1 ml/min. […] Evoked f-EPSP” for “1.1 ml/min. A monopolar electrode was placed in the stratum radiatum to activate Schaffer collaterals and test stimuli were applied at 0.033 Hz at an intensity set to evoke 1/3 of the maximum f-EPSP. Evoked f-EPSP”, “or aCSF. […] Baseline responses” for “or aCSF. The signal was amplified with an AXOPATCH 200B amplifier (Axon Instruments/Molecular Devices, Germany) and sampled using pCLAMP. Baseline responses”, “with aCSF. […]” for “with aCSF.”

Row | SMILES | effect on LTP induced by a single 1-sec train at 100 Hz [1] | mean f-EPSP slope 80-90 min after the onset of OGD ([2]; 0.1 nM drug) [%] | mean f-EPSP slope 80-90 min after the onset of OGD ([2]; 1 nM drug) [%] | mean f-EPSP slope 80-90 min after the onset of OGD ([2]; 10 nM drug) [%] | mean f-EPSP slope 80-90 min after the onset of OGD ([2]; 100 nM drug) | mean f-EPSP slope 80-90 min after the onset of OGD ([2]; 1 μM drug) | IC50 [3] | IC50 ([3]; listed as okadaic acid) [nM] | IC50 [4] [nM] | IC50 ([4]; listed as okadaic acid) [nM] | phosphorylated JNK2 [5] | f-EPSP slope after LTD+OGD, % of baseline 90 min after LTD induction ([2]; 1 nM tautomycin, I-1* mutant slices, LTD 10 min prior to OGD) [%] | mean f-EPSP slope 80-90 min after the onset of OGD ([2]; 3 nM drug) [%] | PP1 inhibition [6] | JNK1 phosphorylation [7] | increase in phosphorylated ERK1 [8] | increase in phosphorylated ERK2 [9] | f-EPSP slope after LTD, % of baseline at 90 min ([10]; I-1* mutant slices) [%] | f-EPSP slope after LTD, % of baseline at 90 min ([10]; control slices) [%]
1 | C=C1[C@@H](O)[C@@H]2O[C@]3(CC[C@H](/C=C/[C@@H](C)[C@@H]4CC(C)=C[C@@]5(O[C@H](C[C@@](C)(O)C(=O)O)CC[C@H]5O)O4)O3)CC[C@H]2O[C@@H]1[C@@H](O)C[C@H](C)[C@H]1O[C@@]2(CCCCO2)CC[C@H]1C [OA, okadaic acid] | blocked | 76.6±20.5 | 86.8±5.2 | 56.6±23.9 | 43.5±16.6% and 43.1±15.6% | 20.2±13.9% and 20.3±14.4% | 0.1 to 1 nM | 0.02 to 1 | 20 to 100 | 10 to 1300 |  |  |  |  |  |  |  |  | 
2 | CO[C@H]([C@H](O)CC(=O)[C@@H](C)[C@@H](O)CC[C@@H](C)[C@@H]1O[C@]2(CC[C@@H](C)[C@H](CC[C@H](C)C(C)=O)O2)CC[C@@H]1C)[C@H](OC(=O)C[C@@H](O)C1=C(C)C(=O)OC1=O)C(C)C [tautomycin] |  |  | 88.6±1.5 | 4.4±2.9 | 0.9±1.3% |  | 10 to 23 nM and 10 to 20 nM |  |  |  | did not increase | 37.0±10.8 | 31.4±4.6 | about 30% | not altered | +366.8±48.6% | +404.1±28.5% | 96.3±3.6 | 85.2±3.0
